Assay results taken from EP2766361B1, “8-CARBAMOYL-2-(2,3-DISUBSTITUTED PYRID-6-YL)-1,2,3,4-TETRAHYDROISOQUINOLINE DERIVATIVES AS APOPTOSIS-INDUCING AGENTS FOR THE TREATMENT OF CANCER AND IMMUNE AND AUTOIMMUNE DISEASES” (priority 2011, dated 2013).

tested on: mouse FL5.12 cells transfected with Bcl-xL; assay: FL5.12 cellular assay (cell viability, CellTiter-Glo); assay type: cell-based; settings: IL-3-depleted, 3% FBS assay media, 24 hours, read-out: FL5.12 Bcl-xL, -IL3, EC50
Description: Cell viability was assayed using the CellTiter-Glo assay (Promega Corp., Madison, WI) according to the manufacturer instructions. Individual determinations were the result of duplicate values. […] Table 2. In Vitro Data

| Structure (SMILES) | EC50 |
| --- | --- |
| Cc1c(-c2ccc(N3CCc4cccc(C(=O)Nc5nc6ccccc6s5)c4C3)nc2C(=O)O)ccnc1OCC12CC3CC(CC(C3)C1)C2 [Example 27, 6-[8-(1,3-benzothiazol-2-ylcarbamoyl)-3,4-dihydroisoquinolin-2(1H)-yl]-3'-methyl-2'-(tricyclo[3.3.1.1^3,7]dec-1-ylmethoxy)-3,4'-bipyridine-2-carboxylic acid] | 214 nM |
| O=C(Nc1nc2ccccc2s1)c1cccc2c1CN(c1ccc(-c3cnn(CC45CC6CC(CC(Br)(C6)C4)C5)c3)c(C(=O)O)n1)CC2 [Example 11, 6-[8-(1,3-benzothiazol-2-ylcarbamoyl)-3,4-dihydroisoquinolin-2(1H)-yl]-3-(1-{[3-bromotricyclo[3.3.1.1^3,7]dec-1-yl]methyl}-1H-pyrazol-4-yl)pyridine-2-carboxylic acid] | 11 nM |
| COC12CC3CC(CC(Cn4ncc(-c5ccc(N6CCc7cccc(C(=O)Nc8nc9ccccc9s8)c7C6)nc5C(=O)NS(=O)(=O)N5CCOCC5)c4C)(C3)C1)C2 [Example 39, N-(1,3-benzothiazol-2-yl)-2-{5-(1-{[3-methoxytricyclo[3.3.1.1^3,7]dec-1-yl]methyl}-5-methyl-1 H-pyrazol-4-yl)-6-[(morpholin-4-ylsulfonyl)carbamoyl]pyridin-2-yl}-1,2,3,4-tetrahydroisoquinoline-8-carboxamide] | 0.6 nM |
| Cc1c(-c2ccc(N3CCc4cccc(C(=O)Nc5nc6ccccc6s5)c4C3)nc2C(=O)O)cccc1N(C)CC12CC3CC(CC(C3)C1)C2 [Example 55, 6-[8-(1,3-benzothiazol-2-ylcarbamoyl)-3,4-dihydroisoquinolin-2(1H)-yl]-3-(2-methyl-3-{methyl[tricyclo[3.3.1.1^3,7]dec-1-ylmethyl]amino}phenyl)pyridine-2-carboxylic acid] | 47 nM |
| Cc1c(-c2ccc(N3CCc4cccc(C(=O)Nc5nc6ccccc6s5)c4C3)nc2C(=O)O)cccc1N(C)C(=O)C12CC3CC(CC(C3)O1)C2 [Example 68, 6-[8-(1,3-benzothiazol-2-ylcarbamoyl)-3,4-dihydroisoquinolin-2(1H)-yl]-3-{2-methyl-3-[methyl(2-oxatricyclo[3.3.1.1^3,7]dec-1-ylcarbonyl)amino]phenyl}pyridine-2-carboxylic acid] | 22 nM |
| Cc1c(-c2ccc(N3CCc4cccc(C(=O)Nc5nc6ccccc6s5)c4C3)nc2C(=O)O)nnn1CC12CC3CC(CC(C3)O1)C2 [Example 66, 6-[8-(1,3-benzothiazol-2-ylcarbamoyl)-3,4-dihydroisoquinolin-2(1H)-yl]-3-[5-methyl-1-(2-oxatricyclo[3.3.1.1^3,7]dec-1-ylmethyl)-1H-1,2,3-triazol-4-yl]pyridine-2-carboxylic acid] | 26 nM |
| Cc1c(-c2ccc(N3CCc4cccc(C(=O)Nc5nc6ccccc6s5)c4C3)nc2C(=O)O)ccnc1NC12CC3CC(CC(C3)C1)C2 [Example 76, 6-[8-(1,3-benzothiazol-2-ylcarbamoyl)-3,4-dihydroisoquinolin-2(1H)-yl]-3'-methyl-2'-(tricyclo[3.3.1.1^3,7]dec-1-ylamino)-3,4'-bipyridine-2-carboxylic acid] | 71 nM |
| O=C(Nc1nc2ccccc2s1)c1cccc2c1CN(c1ccc(-c3ccc(=O)n(CC45CC6CC(CC(C6)C4)C5)c3)c(C(=O)O)n1)CC2 [Example 85, 6-[8-(1,3-benzothiazol-2-ylcarbamoyl)-3,4-dihydroisoquinolin-2(1H)-yl]-6'-oxo-1'-(tricyclo[3.3.1.1^3,7]dec-1-ylmethyl)-1',6'-dihydro-3,3'-bipyridine-2-carboxylic acid] | 111 nM |
| CC12CC3(C)CC(C)(C1)CC(Cn1cc(-c4ccc(N5CCc6cccc(C(=O)Nc7nc8ccccc8s7)c6C5)nc4C(=O)O)cn1)(C2)C3 [Example 9, 6-[8-(1,3-benzothiazol-2-ylcarbamoyl)-3,4-dihydroisoquinolin-2(1H)-yl]-3-{1-[(3,5,7-trimethyltricyclo[3.3.1.1^3,7]dec-1-yl)methyl]-1H-pyrazol-4-yl}pyridine-2-carboxylic acid] | 3 nM |
| COC12CC3(C)CC(C)(CC(Cn4ncc(-c5ccc(N6CCc7cccc(C(=O)Nc8nc9ccccc9s8)c7C6)nc5C(=O)O)c4C)(C3)C1)C2 [Example 38, 6-[8-(1,3-benzothiazol-2-ylcarbamoyl)-3,4-dihydroisoquinolin-2(1H)-yl]-3-(1-{[3-methoxy-5,7-dimethyltricyclo[3.3.1.1^3,7]dec-1-yl]methyl}-5-methyl-1H-pyrazol-4-yl)pyridine-2-carboxylic acid] | 0.1 nM |
| Cc1c(-c2ccc(N3CCc4cccc(C(=O)Nc5nc6ccccc6s5)c4C3)nc2C(=O)O)cnn1CC1C2CC3CC(C2)CC1C3 (stereo not shown) [Example 62, 6-[8-(1,3-benzothiazol-2-ylcarbamoyl)-3,4-dihydroisoquinolin-2(1H)-yl]-3-[5-methyl-1-(tricyclo[3.3.1.1^3,7]dec-2-ylmethyl)-1H-pyrazol-4-yl]pyridine-2-carboxylic acid] | 0.8 nM |
| Cc1nn(CC23CC4CC(CC(C4)C2)C3)c(C)c1-c1ccc(N2CCc3cccc(C(=O)Nc4nc5ccccc5s4)c3C2)nc1C(=O)O [Example 2, 6-[8-(1,3-benzothiazol-2-ylcarbamoyl)-3,4-dihydroisoquinolin-2(1H)-yl]-3-[3,5-dimethyl-1-(tricyclo[3.3.1.1^3,7]dec-1-ylmethyl)-1H-pyrazol-4-yl]pyridine-2-carboxylic acid] | < 1 nM |
| O=C(Nc1nc2ccccc2s1)c1cccc2c1CN(c1ccc(-c3cnn(CC45CC6CC(C4)CC(N4CCOCC4)(C6)C5)c3)c(C(=O)O)n1)CC2 [Example 15, 6-[8-(1,3-benzothiazol-2-ylcarbamoyl)-3,4-dihydroisoquinolin-2(1H)-yl]-3-(1-{[3-(morpholin-4-yl)tricyclo[3.3.1.1^3,7]dec-1-yl]methyl}-1H-pyrazol-4-yl)pyridine-2-carboxylic acid] | 110 nM |
| COC12CC3CC(CC(Cn4c(C#N)cc(-c5ccc(N6CCc7cccc(C(=O)Nc8nc9ccccc9s8)c7C6)nc5C(=O)O)c4C)(C3)C1)C2 [Example 58, 6-[8-(1,3-benzothiazol-2-ylcarbamoyl)-3,4-dihydroisoquinolin-2(1H)-yl]-3-(5-cyano-1-{[3-methoxytricyclo[3.3.1.1^3,7]dec-1-yl]methyl}-2-methyl-1H-pyrrol-3-yl)pyridine-2-carboxylic acid] | 0.3 nM |
| Cc1c(NC(=O)C23CC4CC(CC(C4)C2)C3)cccc1-c1ccc(N2CCc3cccc(C(=O)Nc4nc5ccccc5s4)c3C2)nc1C(=O)O [Example 50, 6-[8-(1,3-benzothiazol-2-ylcarbamoyl)-3,4-dihydroisoquinolin-2(1H)-yl]-3-(2-methyl-3-{[tricyclo[3.3.1.1^3,7]dec-1-ylcarbonyl]amino}phenyl)pyridine-2-carboxylic acid] | > 1000 nM |
| Cc1c(-c2ccc(N3Cc4c(C(=O)Nc5nc6ccccc6s5)cccc4C(C)(C)C3)nc2C(=O)O)cnn1CC12CC3CC(CC(C3)C1)C2 [Example 14, 6-[8-(1,3-benzothiazol-2-ylcarbamoyl)-4,4-dimethyl-3,4-dihydroisoquinolin-2(1H)-yl]-3-[5-methyl-1-(tricyclo[3.3.1.1^3,^7]dec-1-ylmethyl)-1H-pyrazol-4-yl]pyridine-2-carboxylic acid] | < 1 nM |
| O=C(Nc1nc2ccccc2s1)c1cccc2c1CN(c1ccc(-c3cnn(CC45CC6CC(C4)CC(N4CCS(=O)(=O)CC4)(C6)C5)c3)c(C(=O)O)n1)CC2 [Example 33, 6-[8-(1,3-benzothiazol-2-ylcarbamoyl)-3,4-dihydroisoquinolin-2(1H)-yl]-3-(1-{[3-(1,1-dioxidothiomorpholin-4-yl)tricyclo[3.3.1.1^3,7]dec-1-yl]methyl}-1H-pyrazol-4-yl)pyridine-2-carboxylic acid] | > 1000 nM |
| N#Cc1c(NC23CC4CC(CC(C4)C2)C3)cccc1-c1ccc(N2CCc3cccc(C(=O)Nc4nc5ccccc5s4)c3C2)nc1C(=O)O [Example 47, 6-[8-(1,3-benzothiazol-2-ylcarbamoyl)-3,4-dihydroisoquinolin-2(1H)-yl]-3-{2-cyano-3-[tricyclo[3.3.1.1^3,7]dec-1-ylamino]phenyl}pyridine-2-carboxylic acid] | 54 nM |
| Cc1c(-c2ccc(N3CCc4cccc(C(=O)Nc5nc6ccccc6s5)c4C3)nc2C(=O)NS(C)(=O)=O)cnn1CC12CC3CC(CC(C3)C1)C2 [Example 17, N-(1,3-benzothiazol-2-yl)-2-{6-[(methylsulfonyl)carbamoyl]-5-[5-methyl-1-(tricyclo[3.3.1.1^3,7]dec-1-ylmethyl)-1H-pyrazol-4-yl]pyridin-2-yl}-1,2,3,4-tetrahydroisoquinoline-8-carboxamide] | 1 nM |
| Cc1c(OCC23CC4CC(CC(C4)C2)C3)cccc1-c1ccc(N2CCc3cccc(C(=O)Nc4nc5ccccc5s4)c3C2)nc1C(=O)O [Example 21, 6-[8-(1,3-benzothiazol-2-ylcarbamoyl)-3,4-dihydroisoquinolin-2(1H)-yl]-3-{2-methyl-3-[tricyclo[3.3.1.1^3,7]dec-1-ylmethoxy]phenyl}pyridine-2-carboxylic acid] | 343 nM |
| O=C(Nc1nc2ccccc2s1)c1cccc2c1CN(c1ccc(-c3cnn(CC45CC6CC(CC(O)(C6)C4)C5)c3)c(C(=O)O)n1)CC2 [Example 6, 6-[8-(1,3-benzothiazol-2-ylcarbamoyl)-3,4-dihydroisoquinolin-2(1H)-yl]-3-(1-{[3-hydroxytricyclo[3.3.1.1^3,7]dec-1-yl]methyl}-1H-pyrazol-4-yl)pyridine-2-carboxylic acid] | 146 nM |
| O=C(Nc1nc2ccccc2s1)c1cccc2c1CN(c1ccc(-c3cnn(CC4CC5CCC(C4)N5C(=O)OCc4ccccc4)c3)c(C(=O)O)n1)CC2 (stereo not shown) [Example 84, 6-[8-(1,3-benzothiazol-2-ylcarbamoyl)-3,4-dihydroisoquinolin-2(1H)-yl]-3-[1-({8-[(benzyloxy)carbonyl]-8-azabicyclo[3.2.1]oct-3-yl}methyl)-1H-pyrazol-4-yl]pyridine-2-carboxylic acid] | > 1000 nM |
